In US20110052676A1, “Composition For Delaying Cellular Senescence” (priority 2009, published 2011):

Tests used:
Format in all cases: cell-based, Human
[1] = test system: intrinsically-aged dermal fibroblasts; experiment: Delayed senescence in intrinsically-aged dermal fibroblasts measured by SA-β-Gal staining; details: for expression of SA-β-Gal (number of stained cells) vs untreated cells: after 18 population doublings, FIG. 1
Procedure: The peptide isolated from Example 2 was employed to examine the ability of the peptide to delay senescence in dermal fibroblasts aged through a series of population doublings.
Human neonatal fibroblasts were obtained after primary culture (passage 1) and seeded into a set of T-75 flasks in 3 ml/flask of Fibroblast Growth Media (FGM) and grown at 37±2° C. and 5±1% CO2. The cells were expanded through 6 passages (one passage was defined as growing the cells until the flask was confluent and then splitting the cells 1:2, thus one passage was roughly equal to one population doubling). After the 6th passage, the fibroblasts were split into different treatment groups and treated with the various test materials through passage 18. At passage 18 a portion of the fibroblasts were used to assay changes in Senescence Associated-β-Galactosidase (SA-β-Gal), while the remaining fibroblasts were cultured for an additional week (approximately 2 additional passages) in the absence of test materials.
Prior to staining, the fibroblasts were washed once with PBS and then fixed for approximately 6 minutes in fixing solution (2% formaldehyde and 0.2% glutaraldehyde in PBS). After fixing, the cells were washed three times with PBS, followed by the addition of the staining solution (150 mM NaCl, 2 mM MgCl2, 40 mM citric acid (pH 6.0), 12 mM NaPO3, 5 mM potassium ferrocyanide, 5 mM potassium ferricyanide, and […] X-gal). The cells were then incubated at 37° C. overnight in a non-CO2 incubator. On the following day the staining solution was removed and replaced with PBS. The cells were then photographed microscopically and the number of stained cells (SA-β-Gal positive) in each field was counted.

ATM = experiment: H2O2 stress-induced premature senescence in epidermal keratinocytes, ATM expression (ELISA); details: 1% treatment level, after 150 μM H2O2 for two hours, FIG. 2
Procedure: (§1) Human epidermal keratinocytes were seeded into culture flasks and grown at 37±2° C. and 5±1% CO2 using serum free Epilife media supplemented as recommended by the manufacturer. When a sufficient number of cells had been grown they were transferred to 96-well plates and cultured for a minimum of 24 hours to allow the cells to adhere to the well plates. After the initial 24-hour incubation, the media was changed to remove any non-adherent cells and the remaining cells were cultured until confluent, with a media change every 48 to 72 hours as needed.
(§2) Premature cellular senescence was induced by treating the keratinocytes with H2O2. For the H2O2 treatment, the cell culture media was replaced with phosphate buffered saline (PBS) supplemented with 150 μM of H2O2 . The cells were incubated in the H2O2 solution for two hours, after which they were washed once with PBS and then fresh media, either with or without test material, was applied to the cells. At these levels, the H2O2 treatment was not observed to have an impact on cell viability.
(§3) Relative changes in the amount of ATM and p53 expression were determined in the keratinocytes using ELISA based methods. […] After a sufficient level of color development was achieved the plate was read at 460 nm using a plate reader.

p53 = experiment: H2O2 stress-induced premature senescence in epidermal keratinocytes, p53 expression (ELISA); details: 1% treatment level, after 150 μM H2O2 for two hours, FIG. 3
Procedure: as §1, §2, §3

dermal papillae cells = experiment: UV stress-induced premature senescence in dermal papillae cells measured by SA-β-Gal staining; details: 20 mJ/cm^2 UVB, 48 hours, FIG. 4
Procedure: Human dermal papillae cells were seeded into 12 well plates in Dermal Papillae Growth Medium (DPGM) and grown at 37±2° C. and 5±1% CO2 until confluent with a media change every 48 to 72 hours as needed. Once the cells were confluent, the cell culture media was replaced with PBS and the cells were irradiated with 20 mJ/cm^2 UVB. After the UVB irradiation, the PBS was removed and replaced with cell culture media supplemented with the various test materials. Non-supplemented DPGM was used as the untreated control. One set of cells was not exposed to UVB and served as the non-UVB treated control. After the addition of the media, sets of cells were cultured for 48 hours. At the end of the incubation period the cells were obtained and assayed for changes in SA-β-Gal activity.
In a second set of studies, dermal papillae cells were grown and plated as described above. […] This was done to determine the effects of the test materials alone on the markers measured in this study.
After the 48 hour incubation, the cells were washed with PBS and then briefly fixed for 6-7 minutes in fixation buffer (2% formaldehyde and 0.2% glutaraldehyde in PBS). […] On the following day, the wells were examined microscopically and photographed so that the number of stained cells per field could be quantified. The number of positive staining cells in each field was counted. […]

Ogg1 = experiment: Cellular expression of DNA repair enzyme Ogg1 in fibroblasts (microfiltration blot, immunodetection); details: treatment level 0.1%, 24 hours, FIG. 5
Procedure: Human fibroblasts were seeded into culture flasks and grown at 37±2° C. and 5±1% CO2 using FGM. When a sufficient number of cells had been grown they were transferred to 24-well plates and cultured for a minimum of 24 hours to allow the cells to adhere to the well plates. The cells were then grown until confluent, with a media change every 48 to 72 hours.
The test materials were prepared in FGM. The media was then removed from the culture plates and replaced with 0.5 ml of media supplemented with test material, with each treatment being tested in triplicate. FGM alone served as the untreated control. After the application of the cell culture media, the plates were incubated for 24 hours at 37±2° C. and 5±1% CO2. At the end of the incubation period the culture media was removed and the cells were washed once with phosphate buffered saline. […] The protein concentration of the supernatant was determined using the BCA Protein Assay. […]
After the final wash, the membrane was placed into a BioRad Molecular Imager FX and scanned using an excitation laser and emission filter combination appropriate for the fluorophore. Images produced by the scanner were then analyzed using ImageJ image analysis software.
Fluorescence intensity measurements were expressed in Relative Fluorescence Units (RFU). Mean RFU values for each treatment were then calculated and treatments were compared using a one way ANOVA.

## CN[C@@H](Cc1ccccc1)C(=O)N[C@H](C(=O)N[C@@H](C)C(=O)N1CCC[C@H]1C(=O)N[C@@H](Cc1ccccc1)C(=O)N1CCC[C@H]1C(=O)O)C(C)C [Hexapeptide, Phe-Val-Ala-Pro-Phe-Pro]
[1]; 0.5% Hexapeptide treatment
  expression of SA-β-Gal (number of stained cells) vs untreated cells: untreated cells was statistically higher than that seen at 0.5 or 1.0% Hexapeptide treatment
[1]; 1.0% Hexapeptide treatment
  expression of SA-β-Gal (number of stained cells) vs untreated cells: untreated cells was statistically higher than that seen at 0.5 or 1.0% Hexapeptide treatment
[1]; 1% treatment
  expression of SA-β-Gal one week after removal of the Hexapeptide: increase but not yet back to normal
[1]; all treatments except the 1% treatment
  expression of SA-β-Gal one week after removal of the Hexapeptide: returns to normal
ATM
  expression of ATM protein vs prematurely senescent untreated keratinocytes: statistically delay senescence
p53
  expression of p53 protein vs prematurely senescent untreated keratinocytes: statistically delay senescence
Dermal papillae cells; 0.5% Hexapeptide
  SA-β-Gal expression (number of stained cells) after UV: statistically significant decrease
Dermal papillae cells; 1.0% Hexapeptide
  SA-β-Gal expression (number of stained cells) after UV: statistically significant decrease
Ogg1
  expression of Ogg1 (RFU) vs untreated control: statistically increase expression of Ogg1
